Results reported in PubChem BioAssay (NCI).
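Growth conditions: 96-well plates. Treatment: test compound, 48 hours, 5 concentrations. Analysis: linear interpolation between bracketing concentrations; unreached endpoints set to highest concentration. TGI is the concentration that stops growth completely.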

Tests used:
Assay in all cases: NCI anticancer screen, dose series, 48 h
HT29 colon = system: HT29 colon
MALME-3M melanoma = system: MALME-3M melanoma
MCF7 breast = system: MCF7 breast
K-562 leukemia = system: K-562 leukemia
NCI-H522 lung = system: NCI-H522 lung
OVCAR-3 ovarian = system: OVCAR-3 ovarian
CCRF-CEM leukemia = system: CCRF-CEM leukemia
LOX IMVI melanoma = system: LOX IMVI melanoma
SNB-75 CNS = system: SNB-75 CNS
HCC-2998 colon = system: HCC-2998 colon
NCI-H226 lung = system: NCI-H226 lung
MDA-N = system: MDA-N
SK-MEL-2 melanoma = system: SK-MEL-2 melanoma
SK-MEL-5 melanoma = system: SK-MEL-5 melanoma
BT-549 breast = system: BT-549 breast
SK-OV-3 ovarian = system: SK-OV-3 ovarian
IGROV1 ovarian = system: IGROV1 ovarian
EKVX NSCLC = system: EKVX NSCLC
SF-268 CNS = system: SF-268 CNS
786-0 renal = system: 786-0 renal
DU-145 prostate = system: DU-145 prostate
ACHN renal = system: ACHN renal
HOP-62 NSCLC = system: HOP-62 NSCLC
SK-MEL-28 melanoma = system: SK-MEL-28 melanoma
SF-295 CNS = system: SF-295 CNS
HL-60(TB) leukemia = system: HL-60(TB) leukemia
UACC-62 melanoma = system: UACC-62 melanoma
COLO 205 colon = system: COLO 205 colon
U251 CNS = system: U251 CNS
MOLT-4 leukemia = system: MOLT-4 leukemia
HCT-15 colon = system: HCT-15 colon
HS 578T breast = system: HS 578T breast
TK-10 renal = system: TK-10 renal
RXF 393 renal = system: RXF 393 renal
SF-539 CNS = system: SF-539 CNS
A549 NSCLC = system: A549 NSCLC
PC-3 prostate = system: PC-3 prostate
UO-31 renal = system: UO-31 renal
OVCAR-4 ovarian = system: OVCAR-4 ovarian
M14 melanoma = system: M14 melanoma
T-47D breast = system: T-47D breast
MDA-MB-231 breast = system: MDA-MB-231 breast
CAKI-1 renal = system: CAKI-1 renal
NCI/ADR-RES ovarian = system: NCI/ADR-RES ovarian
SNB-19 CNS = system: SNB-19 CNS
SN12C renal = system: SN12C renal
MDA-MB-435 = system: MDA-MB-435
HCT-116 colon = system: HCT-116 colon
OVCAR-5 ovarian = system: OVCAR-5 ovarian
HOP-92 NSCLC = system: HOP-92 NSCLC
RPMI-8226 leukemia = system: RPMI-8226 leukemia
SW-620 colon = system: SW-620 colon
OVCAR-8 ovarian = system: OVCAR-8 ovarian
NCI-H23 lung = system: NCI-H23 lung
A498 renal = system: A498 renal
NCI-H460 lung = system: NCI-H460 lung
UACC-257 melanoma = system: UACC-257 melanoma
KM12 colon = system: KM12 colon

In the case of `Cc1ccc2ccc(O)cc2c1`, the TGI (HT29 colon) is reported as over 100 µM, the TGI (MALME-3M melanoma) is reported as over 100 µM and the TGI (MCF7 breast) is reported as over 100 µM. The TGI (K-562 leukemia) was 47.1 µM, the TGI (NCI-H522 lung) was 42.4 µM and the TGI (OVCAR-3 ovarian) was 28.7 µM. It also gave a TGI (CCRF-CEM leukemia) of 61.8 µM, a TGI (LOX IMVI melanoma) of over 100 µM and a TGI (SNB-75 CNS) of over 100 µM. The TGI (HCC-2998 colon) was 46.8 µM, the TGI (NCI-H226 lung) was over 100 µM and the TGI (MDA-N) was 42.6 µM. For the same compound, the TGI (SK-MEL-2 melanoma) was over 100 µM, the TGI (SK-MEL-5 melanoma) was over 100 µM and the TGI (BT-549 breast) was 99.4 µM. The TGI (SK-OV-3 ovarian) was over 100 µM, the TGI (IGROV1 ovarian) was 57.3 µM and the TGI (EKVX NSCLC) was over 100 µM. For the same compound, the TGI (SF-268 CNS) was over 100 µM, the TGI (786-0 renal) was over 100 µM and the TGI (DU-145 prostate) was over 100 µM. The TGI (ACHN renal) was over 100 µM, the TGI (HOP-62 NSCLC) was over 100 µM and the TGI (SK-MEL-28 melanoma) was over 100 µM. It also gave a TGI (SF-295 CNS) of over 100 µM, a TGI (HL-60(TB) leukemia) of 52.8 µM and a TGI (UACC-62 melanoma) of over 100 µM. The TGI (COLO 205 colon) was over 100 µM, the TGI (U251 CNS) was 48.8 µM and the TGI (MOLT-4 leukemia) was 55.9 µM. For the same compound, the TGI (HCT-15 colon) was over 100 µM, the TGI (HS 578T breast) was over 100 µM and the TGI (TK-10 renal) was over 100 µM. It also gave a TGI (RXF 393 renal) of over 100 µM, a TGI (SF-539 CNS) of over 100 µM and a TGI (A549 NSCLC) of over 100 µM. For the same compound, the TGI (PC-3 prostate) was 52.9 µM, the TGI (UO-31 renal) was 67.1 µM and the TGI (OVCAR-4 ovarian) was 52 µM. For the same compound, the TGI (M14 melanoma) was over 100 µM, the TGI (T-47D breast) was over 100 µM and the TGI (MDA-MB-231 breast) was over 100 µM. It also gave a TGI (CAKI-1 renal) of over 100 µM, a TGI (NCI/ADR-RES ovarian) of 60.4 µM and a TGI (SNB-19 CNS) of over 100 µM. For the same compound, the TGI (SN12C renal) was over 100 µM, the TGI (MDA-MB-435) was 46.8 µM and the TGI (HCT-116 colon) was over 100 µM. It also gave a TGI (OVCAR-5 ovarian) of over 100 µM, a TGI (HOP-92 NSCLC) of 80.9 µM and a TGI (RPMI-8226 leukemia) of 66.4 µM. For the same compound, the TGI (SW-620 colon) was over 100 µM, the TGI (OVCAR-8 ovarian) was 60.9 µM and the TGI (NCI-H23 lung) was over 100 µM. The TGI (A498 renal) was over 100 µM, the TGI (NCI-H460 lung) was over 100 µM and the TGI (UACC-257 melanoma) was over 100 µM. For the same compound, the TGI (KM12 colon) was over 100 µM.

`Cc1cn(C(=O)NC23CC4CC(CC(C4)C2)C3)c(=O)[nH]c1=O` gave a TGI (HT29 colon) of over 100 µM, a TGI (MALME-3M melanoma) of over 100 µM and a TGI (MCF7 breast) of over 100 µM. For the same compound, the TGI (K-562 leukemia) was over 100 µM, the TGI (OVCAR-3 ovarian) was over 100 µM and the TGI (CCRF-CEM leukemia) was 74.5 µM. The TGI (LOX IMVI melanoma) was 83 µM, the TGI (SNB-75 CNS) was over 100 µM and the TGI (HCC-2998 colon) was over 100 µM. The TGI (NCI-H226 lung) was 65.7 µM, the TGI (MDA-N) was over 100 µM and the TGI (SK-MEL-2 melanoma) was 76.3 µM. For the same compound, the TGI (SK-MEL-5 melanoma) was over 100 µM, the TGI (BT-549 breast) was 86.1 µM and the TGI (SK-OV-3 ovarian) was over 100 µM. For the same compound, the TGI (EKVX NSCLC) was 65.5 µM, the TGI (SF-268 CNS) was over 100 µM and the TGI (786-0 renal) was over 100 µM. For the same compound, the TGI (DU-145 prostate) was over 100 µM, the TGI (ACHN renal) was 94.1 µM and the TGI (HOP-62 NSCLC) was over 100 µM. The TGI (SK-MEL-28 melanoma) was over 100 µM, the TGI (SF-295 CNS) was over 100 µM and the TGI (HL-60(TB) leukemia) was 51.2 µM. The TGI (UACC-62 melanoma) was 71.4 µM, the TGI (COLO 205 colon) was 75.5 µM and the TGI (U251 CNS) was over 100 µM. The TGI (MOLT-4 leukemia) was 89.1 µM, the TGI (HCT-15 colon) was 80.3 µM and the TGI (HS 578T breast) was over 100 µM. It also gave a TGI (TK-10 renal) of over 100 µM, a TGI (RXF 393 renal) of over 100 µM and a TGI (SF-539 CNS) of over 100 µM. It also gave a TGI (A549 NSCLC) of over 100 µM, a TGI (PC-3 prostate) of over 100 µM and a TGI (UO-31 renal) of over 100 µM. The TGI (OVCAR-4 ovarian) was over 100 µM, the TGI (M14 melanoma) was over 100 µM and the TGI (T-47D breast) was over 100 µM. For the same compound, the TGI (MDA-MB-231 breast) was 61.3 µM, the TGI (CAKI-1 renal) was over 100 µM and the TGI (NCI/ADR-RES ovarian) was 86.6 µM. The TGI (SNB-19 CNS) was over 100 µM, the TGI (SN12C renal) was over 100 µM and the TGI (MDA-MB-435) was over 100 µM. The TGI (HCT-116 colon) was over 100 µM, the TGI (OVCAR-5 ovarian) was over 100 µM and the TGI (HOP-92 NSCLC) was over 100 µM. It also gave a TGI (RPMI-8226 leukemia) of 75.1 µM, a TGI (SW-620 colon) of over 100 µM and a TGI (OVCAR-8 ovarian) of over 100 µM. For the same compound, the TGI (NCI-H23 lung) was over 100 µM, the TGI (NCI-H460 lung) was over 100 µM and the TGI (UACC-257 melanoma) was over 100 µM. It also gave a TGI (KM12 colon) of over 100 µM.

`CCOC(=O)C(NC(=O)c1ccccc1)(Nc1cc(C)on1)C(F)(F)F` (centres undefined) was tested, and the TGI (HT29 colon) was over 100 µM, the TGI (MALME-3M melanoma) was over 100 µM and the TGI (MCF7 breast) was over 100 µM. The TGI (K-562 leukemia) was over 100 µM, the TGI (NCI-H522 lung) was over 100 µM and the TGI (OVCAR-3 ovarian) was over 100 µM. For the same compound, the TGI (CCRF-CEM leukemia) was over 100 µM, the TGI (LOX IMVI melanoma) was over 100 µM and the TGI (SNB-75 CNS) was over 100 µM. The TGI (HCC-2998 colon) was over 100 µM, the TGI (NCI-H226 lung) was over 100 µM and the TGI (MDA-N) was over 100 µM. The TGI (SK-MEL-2 melanoma) was over 100 µM, the TGI (SK-MEL-5 melanoma) was over 100 µM and the TGI (BT-549 breast) was over 100 µM. For the same compound, the TGI (SK-OV-3 ovarian) was over 100 µM, the TGI (IGROV1 ovarian) was over 100 µM and the TGI (EKVX NSCLC) was over 100 µM. It also gave a TGI (SF-268 CNS) of over 100 µM, a TGI (786-0 renal) of over 100 µM and a TGI (DU-145 prostate) of over 100 µM. For the same compound, the TGI (ACHN renal) was over 100 µM, the TGI (HOP-62 NSCLC) was over 100 µM and the TGI (SK-MEL-28 melanoma) was over 100 µM. For the same compound, the TGI (SF-295 CNS) was over 100 µM, the TGI (HL-60(TB) leukemia) was over 100 µM and the TGI (UACC-62 melanoma) was over 100 µM. It also gave a TGI (COLO 205 colon) of over 100 µM, a TGI (U251 CNS) of over 100 µM and a TGI (MOLT-4 leukemia) of over 100 µM. The TGI (HCT-15 colon) was over 100 µM, the TGI (HS 578T breast) was over 100 µM and the TGI (TK-10 renal) was over 100 µM. The TGI (RXF 393 renal) was over 100 µM, the TGI (SF-539 CNS) was over 100 µM and the TGI (A549 NSCLC) was over 100 µM. For the same compound, the TGI (PC-3 prostate) was over 100 µM, the TGI (UO-31 renal) was over 100 µM and the TGI (OVCAR-4 ovarian) was over 100 µM. It also gave a TGI (M14 melanoma) of over 100 µM, a TGI (T-47D breast) of over 100 µM and a TGI (MDA-MB-231 breast) of 56.2 µM. The TGI (CAKI-1 renal) was over 100 µM, the TGI (NCI/ADR-RES ovarian) was over 100 µM and the TGI (SNB-19 CNS) was over 100 µM. The TGI (SN12C renal) was over 100 µM, the TGI (MDA-MB-435) was over 100 µM and the TGI (HCT-116 colon) was over 100 µM. The TGI (OVCAR-5 ovarian) was over 100 µM, the TGI (HOP-92 NSCLC) was over 100 µM and the TGI (RPMI-8226 leukemia) was over 100 µM. The TGI (SW-620 colon) was over 100 µM, the TGI (OVCAR-8 ovarian) was over 100 µM and the TGI (NCI-H23 lung) was over 100 µM. For the same compound, the TGI (UACC-257 melanoma) was over 100 µM and the TGI (KM12 colon) was over 100 µM.
